Assay [1] deals with SW620/5-FU. The experiment in a line: Reversal of 5-FU resistance against human SW620/5-FU cells assessed as reduction in cell viability incubated for 48 hrs in presence of 5-FU by MTT assay. In kind it is functional, cell-based. Background: Formazan colour is commonly taken as a measure of viable cells.
Assay [2] deals with T1, Sphingosine 1-phosphate receptor 2 (Homo sapiens, UniProt O95136). The assay can be described thus: Binding affinity to S1PR2 (unknown origin) by SPR assay. For orientation: In SPR one partner is held on a chip, and binding of the other changes the refractive index at the surface.
T1 sequence (O95136 whole entry): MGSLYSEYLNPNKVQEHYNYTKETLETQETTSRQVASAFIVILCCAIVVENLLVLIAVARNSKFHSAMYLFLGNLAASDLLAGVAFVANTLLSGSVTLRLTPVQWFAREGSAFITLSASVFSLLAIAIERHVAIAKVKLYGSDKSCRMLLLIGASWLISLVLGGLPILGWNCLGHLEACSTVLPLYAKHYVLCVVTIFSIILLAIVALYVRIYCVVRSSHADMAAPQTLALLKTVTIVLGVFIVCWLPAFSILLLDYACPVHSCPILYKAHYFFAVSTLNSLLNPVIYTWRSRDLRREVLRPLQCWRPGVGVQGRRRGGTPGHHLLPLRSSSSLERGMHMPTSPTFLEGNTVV
Assay [3] concerns HCT-116. The experiment in a line: Reversal of 5-FU resistance against 5-FU resistant DPD expressed human HCT-116 cells assessed as reduction in cell viability incubated for 48 hrs in presence of 5-FU by MTT assay. In kind it is functional, cell-based. The note with it: HCT-116, 48 h.
In assay [4] the test system is HCT-116. The experiment in a line: Antiproliferative activity against 5-FU resistant DPD expressed human HCT-116 cells assessed as reduction in cell viability incubated for 48 hrs by MTT assay. The note with it: HCT-116, 48 h. Format: functional, cell-based.
For assay [5], the system named is SW620/5-FU. The experiment in a line: Antitumor activity against human SW620/5-FU cells xenografted in SPF nude mouse assessed as tumor growth inhibition at 15 mg/kg, iv QD for 21 days and measured every 4 days. Format: functional. The conditions noted are these: 504 h, time 21 day, read-out: TGI. For orientation: In xenograft studies the graft and the host belong to different species.

The test system of assay [6] is SW620/5-FU. The assay can be described thus: Antiproliferative activity against human SW620/5-FU cells assessed as reduction in cell viability incubated for 48 hrs by MTT assay. Format: functional, cell-based.
Assay [7] deals with SW620/5-FU. The experiment in a line: Antitumor activity against human SW620/5-FU cells xenografted in SPF nude mouse assessed as reduction in tumor weight at 15 mg/kg, iv QD for 21 days. The conditions noted are these: time 21 day. In kind it is functional. More on the design: scale not given: the % may be the effect or the level left.
Assay [8] concerns HCT-116. The assay can be described thus: Antitumor activity against DPD expressed human HCT-116 cells xenografted in SPF nude mouse assessed as tumor growth inhibition at 15 mg/kg, iv QD for 20 days and measured every 4 days. In kind it is functional. The note with it: HCT-116, 480 h, time 20 day, read-out: TGI.
In assay [9] the target is T1, Sphingosine 1-phosphate receptor 2. The experiment in a line: Antagonist activity at S1PR2 in human SW620/5-FU cells assessed as reduction of DPD-catalyzed 5-FU degradation by measuring intracellular 5-FU level at 20 uM measured after 24 hrs by HPLC-UV analysis. The note with it: filed as antagonist. Format: functional, cell-based.

pEC50, pKd: −log10 of the molar value.

For the molecule `COc1cc(NC(=O)NNc2cc(-c3ccc(F)cc3)c3cnn(C)c3n2)cc(OC)c1OC`, the figures for the pEC50 in assay [1] and in assay [3] were 4.41 and 4.34, respectively. Further, the pKd (usually −log10 of the Kd, conventionally taken in molar units) in [2] is 5.35.
In the case of `CCCCOc1cc(NC(=O)NNc2cc(-c3ccc(OC)cc3)c3cnn(C)c3n2)cc(Cl)n1`, the negative-log EC50 (pEC50) (in general, the negative decadic logarithm of the EC50, by convention in mol/L) was 4.41 in [1] and 4.44 in assay [3]. Moreover, in assay [2], the negative-log Kd (pKd) is 5.38.
In the case of `CCCOc1cc(NC(=O)NNc2cc(-c3ccc(OC)cc3)c3cnn(C)c3n2)cc(Cl)n1`, the negative logarithm of the EC50 (pEC50) is 4.43 in assay [1] and 4.48 in assay [3]. In assay [2], this molecule showed a pKd of 5.50.
Turning to `CCCc1cc(NNC(=O)Nc2cc(Cl)nc(Cl)c2)nc2c1c(C(F)(F)F)nn2C`, the pEC50 in assay [1] is 4.93; in assay [3], 4.42. In [2], the pKd was 6.05.
Regarding `Cc1ccc(NC(=O)NNc2cc(-c3ccc(F)cc3)c3cnn(C)c3n2)cc1Nc1nccc(-c2cccnc2)n1`, the negative logarithm of the EC50 (pEC50) was 4.48 in [1] and 4.41 in assay [3]. The molecule also gave a pKd in [2] of 5.22.
As for `COc1ccc(-c2cc(NNC(=O)Nc3cc(Br)nc(Br)c3)nc3c2cnn3C)cc1`, the negative logarithm of the EC50 (pEC50) in assay [1] was 4.27; in [3], 4.34. Further, the pKd in assay [2] was 5.20.
As for `Cn1nc(C(F)(F)F)c2c(-c3ccccc3)cc(NNC(=O)Nc3cc(Cl)nc(Cl)c3)nc21`, the values for the negative-log EC50 (pEC50) in assay [1] and in assay [3] were 4.88 and 4.74, respectively. The same molecule had a pKd in assay [2] of 6.03.
In the case of `COc1cc(NC(=O)NNc2cc(-c3ccccc3)c3cnn(C)c3n2)cc(Cl)n1`, the pEC50 is 4.54 in [1] and 4.51 in assay [3]. Further, the negative logarithm of the Kd (pKd) in [2] is 5.44.
For the molecule `COc1ccc(-c2cc(NNC(=O)Nc3cc(Cl)nc(OC)c3)nc3c2cnn3C)cc1`, the negative-log EC50 (pEC50) was 4.31 in assay [1] and 4.27 in assay [3]. The molecule further gave a pKd in assay [2] of 5.70.
On to `Cn1ncc2c(-c3ccc(F)cc3)cc(NNC(=O)N/C=C/c3cccnc3)nc21`, for which the pEC50 in assay [1] was 4.31; in assay [3], 4.44. This molecule also had a pKd in [2] of 5.39.
In the same order, the values of `Cc1nn(C)c2nc(NNC(=O)Nc3cc(Cl)nc(Cl)c3)cc(-c3ccc(Cl)s3)c12` are 4.53, 4.38 and 5.70.
For `Cn1ncc2c(-c3ccc(F)cc3)cc(NNC(=O)Nc3cc(Cl)cc(Cl)c3)nc21`, in that order: 4.27, 4.41 and 5.30.
For `CCN(CC)c1cc(NC(=O)NNc2cc(-c3ccc(F)cc3)c3cnn(C)c3n2)cc(Cl)n1`, in that order: 4.43, 4.53 and 5.50.
Turning to `Cc1cc(NNC(=O)Nc2cc(Cl)nc(Cl)c2)nc2c1c(C)nn2C`, the negative-log EC50 (pEC50) in assay [1] and in assay [3] was under 4.00 in each case. In assay [2], this molecule gave a negative-log Kd (pKd) of 4.96.
On to `CC(C)c1cc(NNC(=O)Nc2cc(Cl)nc(Cl)c2)nc2c1c(C(F)(F)F)nn2C`, for which the negative logarithm of the EC50 (pEC50) in [1] is 4.72; in assay [3], 4.57. The same molecule had a pKd in [2] of 5.90.
For the molecule `CCCc1cc(NNC(=O)Nc2cc(Cl)nc(Cl)c2)nc2c1c(C)nn2C`, the negative-log EC50 (pEC50) was 4.39 in [1] and 4.14 in assay [3]. Besides, the pKd in [2] is 5.63.
For the molecule `CCCc1cc(NNC(=O)Nc2cc(Cl)nc(Cl)c2)nc2c1cnn2C`, the negative-log EC50 (pEC50) was 4.41 in [1] and 4.12 in [3]. The molecule also showed a negative logarithm of the Kd (pKd) in assay [2] of 5.85.
As for `COc1ccc(-c2cc(NNC(=O)Nc3cc(Cl)nc(Cl)c3)nc3c2cnn3C)cc1`, the negative logarithm of the EC50 (pEC50) was 4.73 in [1] and 4.91 in [3]. For the same molecule, the negative-log Kd (pKd) in assay [2] was 6.28.
For `O=c1[nH]cc(F)c(=O)[nH]1` [FLUOROURACIL], the pEC50 in [4] and in assay [6] was under 3.00 throughout. The values for the inhibition in vivo at 15 mg/kg in [5] and in assay [8] were 21.2% and 20.3%, respectively. Also, the Activity in assay [7] came out at 27.23%.
On to `CCCCOc1cc(NC(=O)NNc2cc(-c3ccc(F)cc3)c3cnn(C)c3n2)cc(Cl)n1`, for which the pEC50 in [1] is 4.53; in [3], 4.31. This molecule also had a negative-log Kd (pKd) in assay [2] of 5.58.
In the case of `Cn1ncc2c(-c3ccc(F)cc3)cc(NNC(=O)Nc3cc(Cl)nc(OCCF)c3)nc21`, the pEC50 in [1] was 4.53; in assay [3] it was 4.43. In assay [2], the negative logarithm of the Kd (pKd) was 5.55.
`Cc1c(Cc2ccccc2)c(NNC(=O)Nc2cc(Cl)nc(Cl)c2)nc2c1cnn2C`: the pEC50 in assay [1] is 4.67; in [3] it was 4.87. This molecule showed a pKd in assay [2] of 6.06.
As to `COc1cc(NC(=O)NNc2cc(-c3ccc(F)cc3)c3cnn(C)c3n2)cc(Cl)n1`, the pEC50 is 4.62 in [1] and 4.12 in assay [3]. This molecule gave a pKd in assay [2] of 5.78.
In the case of `COc1ccc(-c2cc(NNC(=O)Nc3cc(Cl)nc(Cl)c3)nc3c2c(C)nn3C)cc1`, the pEC50 in assay [1] is 5.01; in [3] it was 4.08. For the same molecule, the pKd in assay [2] was 5.99.
For `Cc1nn(C)c2nc(NNC(=O)Nc3cc(Cl)nc(Cl)c3)cc(C3CC3)c12`, in that order: 4.09, 4.17 and 5.44.
`Cn1ncc2c(-c3ccc(F)cc3)cc(NNC(=O)Nc3cc(F)cc(F)c3)nc21`: the results for the negative logarithm of the EC50 (pEC50) in assay [1] and in assay [3] were 4.32 and 4.34, respectively. This molecule had a negative logarithm of the Kd (pKd) in assay [2] of 5.40.
On to `Cc1nn(C)c2nc(NNC(=O)Nc3cc(Cl)nc(Cl)c3)cc(-c3ccco3)c12`, for which the pEC50 in assay [1] was under 4.00; in [3] it was 4.16. The negative logarithm of the Kd (pKd) in assay [2] is 5.19.
On to `COc1ccc(-c2cc(NNC(=O)Nc3cc(Cl)nc(OC(C)C)c3)nc3c2cnn3C)cc1`, for which the negative logarithm of the EC50 (pEC50) in [1] is 4.33; in assay [3], 4.40. Further, the pKd in [2] is 5.63.
On to `Cc1nn(C)c2nc(NNC(=O)Nc3cc(Cl)nc(Cl)c3)cc(C(C)C)c12`, for which the pEC50 in assay [1] is 4.23; in [3], 4.74. This molecule showed a negative logarithm of the Kd (pKd) in assay [2] of 5.71. Also, the Activity in [9] turned out to be 1.75 µM.
With `Cc1nn(C)c2nc(NNC(=O)Nc3cc(Cl)nc(Cl)c3)cc(C3CCCCC3)c12`, the pEC50 in [1] is 4.66; in assay [3], 4.42. For the same molecule, the pKd in [2] is 5.70.
As to `Cc1nn(C)c2nc(NNC(=O)Nc3cc(Cl)nc(Cl)c3)cc(-c3ccccc3)c12`, the pEC50 is 4.64 in [1] and 4.10 in assay [3]. Besides, the negative logarithm of the Kd (pKd) in assay [2] is 5.27.
Regarding `Cc1nn(C)c2nc(NNC(=O)Nc3cc(Cl)nc(Cl)c3)cc(-c3ccc(F)cc3)c12`, the negative-log EC50 (pEC50) is 4.76 in assay [1] and 4.60 in assay [3]. In assay [2], this molecule gave a negative-log Kd (pKd) of 6.01.
Take `Cn1ncc2c(-c3ccccc3)cc(NNC(=O)Nc3cc(Cl)nc(Cl)c3)nc21`: the pEC50 in assay [1] is 4.11; in [3], 5.20. This molecule had a pKd in [2] of 5.99.
In the same order, the values of `CC(C)c1cc(NNC(=O)Nc2cc(Cl)nc(Cl)c2)nc2c1cnn2C` are 4.30, 4.77 and 6.11.

These data come from ChEMBL document CHEMBL5120746, “Novel 5-fluorouracil sensitizers for colorectal cancer therapy: Design and synthesis of S1P receptor 2 (S1PR2) antagonists” (Eur J Med Chem, 2022).
